Measurements taken from patent publication US20240368164A1, “PURINE NUCLEOSIDES, THEIR INTERMEDIATES, AND METHODS OF PREPARATION THEREOF” (Astrocyle Pharmaceuticals, Inc., priority 2021, published 2024).

Experiments:
Human A3R = target: T1, Human A3R (Homo sapiens, UniProt P0DMS8); assay: Radioligand binding at human A3 adenosine receptor ([125I]I-AB-MECA, CHO cell membranes); conditions: n = 1; read-out: Affinity (nM) at Human A3R
T1 construct: expressed in transfected cells
T1 sequence (P0DMS8 1-318): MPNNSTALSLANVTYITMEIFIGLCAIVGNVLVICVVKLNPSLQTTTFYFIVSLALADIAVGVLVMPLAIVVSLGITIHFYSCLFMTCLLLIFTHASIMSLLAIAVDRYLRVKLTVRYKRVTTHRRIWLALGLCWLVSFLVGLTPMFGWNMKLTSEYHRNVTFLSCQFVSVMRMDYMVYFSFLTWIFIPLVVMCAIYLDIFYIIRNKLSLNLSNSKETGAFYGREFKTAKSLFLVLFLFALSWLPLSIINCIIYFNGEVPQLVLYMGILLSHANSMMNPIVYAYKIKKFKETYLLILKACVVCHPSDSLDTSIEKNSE
Procedure: [3H]R—N^6-Phenylisopropyladenosine ([3H]R-PIA, 63 Ci/mmol), [^3H](2-[p-(2-carboxyethyl)phenyl-ethylamino]-5′-N-ethylcarboxamido-adenosine) ([^3H]CGS21680, 40.5 Ci/mmol) and [^125I]N^6-(4-amino-3-iodobenzyl)adenosine-5′-N-methyluronamide ([^125I]I-AB-MECA, 2200 Ci/mmol) were purchased from Perkin-Elmer Life and Analytical Science (Boston, MA). Test compounds were prepared as 5 mM stock solutions in DMSO and stored frozen.
Cell Culture and Membrane Preparation—CHO cells stably expressing the recombinant hA1 and hA3ARs and HEK293 cells stably expressing the hA2AAR were cultured in Dulbecco's modified Eagle medium (DMEM) and F12 (1:1) supplemented with 10% fetal bovine serum, 100 units/mL penicillin, 100 μg/mL streptomycin, and 2 μmol/mL glutamine. In addition, 800 μg/mL geneticin was added to the A2A media, while 500 μg/mL hygromycin was added to the A1 and A3 media. After harvesting, cells were homogenized and suspended in PBS. Cells were then centrifuged at 240 g for 5 min, and the pellet was resuspended in 50 mM Tris-HCl buffer (pH 7.5) containing 10 mM MgCl2. The suspension was homogenized and was then ultra-centrifuged at 14,330 g for 30 min at 4° C. The resultant pellets were resuspended in Tris buffer, incubated with adenosine deaminase (3 units/mL) for 30 min at 37° C. The suspension was homogenized with an electric homogenizer for 10 sec, pipetted into 1 mL vials and then stored at −80° C. until the binding experiments. The protein concentration was measured using the BCA Protein Assay Kit from Pierce Biotechnology, Inc. (Rockford, IL).
Binding assays: Into each tube in the binding assay was added 50 μL of increasing concentrations of the test ligand in Tris-HCl buffer (50 mM, pH 7.5) containing 10 mM MgCl2, 50 μL of the appropriate agonist radioligand, and finally 100 μL of membrane suspension. For the A1AR (22 μg of protein/tube) the radioligand used was [^3H]R-PIA (final concentration of 3.5 nM). For the A2AAR (20 μg/tube) the radioligand used was [^3H]CGS21680 (10 nM). For the A3AR ([…]) the radioligand used was [^125I]I-AB-MECA (0.34 nM). Nonspecific binding was determined using a final concentration of 10 μM NECA diluted with the buffer. The mixtures were incubated at 25° C. for 60 min in a shaking water bath. Binding reactions were terminated by filtration through Brandel GF/B filters under a reduced pressure using a M-24 cell harvester (Brandel, Gaithersburg, MD). Filters were washed three times with 3 mL of 50 mM ice-cold Tris-HCl buffer (pH 7.5). Filters for A1 and A2AAR binding were placed in scintillation vials containing 5 mL of Hydrofluor scintillation buffer and counted using a Perkin Elmer Liquid Scintillation Analyzer (Tri-Carb 2810TR). Filters for A3AR binding were counted using a Packard Cobra II T-counter. The Ki values were determined using GraphPad Prism for all assays.
A3R binding of selected compounds. Using methods described herein, the affinity of selected compounds at the A3 receptor was measured.

[1] = Nonspecific brain tissue binding (free fraction); type: in vitro ADME, mouse
Excerpt: Example 3 of U.S. Pat. No. 9,789,131, which is incorporated herein by reference, describes assays for determining the plasma and brain free fraction of certain compounds such as I-1. Compounds described herein may be evaluated using such assays or similar variants thereof.

[2] = tested on: traumatic brain injury (TBI) in mice; assay: Mouse traumatic brain injury (TBI) model; type: in vivo
Procedure: Animals and traumatic brain injury (TBI): TBI is performed with a controlled closed skull injury model as described in Talley-Watts et al. 2012 (J. Neurotrauma 30, 55-66). Following the method described therein, a pneumatic impact device is used to generate a moderate TBI leaving the skull and dura matter intact. To achieve this, C57BL/6 mice are anesthetized with isoflurane (3% induction, 1% maintenance) in 100% oxygen. A body temperature of 37° C. is maintained using a temperature-controlled heated surgical table. A small midline incision is made on the scalp using aseptic surgical techniques. A 5 mm stainless steel disc is positioned on the skull and fixed using superglue on the right parietal bone between bregma and lamda over the somatosensory cortex. The mouse is then positioned on a stage directly under the pneumatic impact tip. […] Mice are placed in a Thermo-Intensive Care Unit (Braintree Scientific model FV-1; 37° C.; 27% O2) and monitored until fully awake and moving freely. […]
Western Blot Analysis for GFAP: At selected survival times, mice are anesthetized under isoflurane and sacrificed. […] The homogenate is transferred to a 2 mL tube and centrifuged at 1000 g for 10 minutes at 4° C. and the supernatant is collected and analyzed. Protein concentration is determined by the BCA assay using a 1:50 dilution. […]

In the case of CSc1nc(N)c2ncn([C@H]3[C@H](O)[C@H](O)[C@]4(CO)C[C@H]34)c2n1 [Compound I-1, (1R,2R,3S,4R,5S)-4-(6-Amino-2-(methylthio)-9H-purin-9-yl)-1-(hydroxymethyl)bicyclo[3.1.0]hexane-2,3-diol], the Ki (Human A3R) is reported as 1490 nM, the “free (unbound) fraction in brain” value ([1]; brain tissue) is reported as 0.13 and the “fraction available to interact with the A3 receptor, relative to Cl-IB-IMECA” value ([1]; mouse models, from unbound fractions) is reported as “at least 1000 fold”. For the same compound, the “efficacy in mouse TBI model” value [2] was “significant efficacy”.
